Results as given in ChEMBL document CHEMBL5257018, “Novel Strategies for the Treatment of Pseudomonas aeruginosa Infections” (J Med Chem, 2016).
≈ marks a conversion by molar mass, not a printed value. Values belong to the compound of their own block, whether it stands above or below them. Numbered stars: 1 amine (or outer) side, 2 acyl side, 3 side chain; on linkers, the order of the positions; unused ones are H or OH. Bridge positions count the residues as written; N and C are the ends. Square brackets hold non-standard residues; d marks the D form. Side chains are listed from the residue outwards. Peptide text beside a SMILES is read from it. I, II: the chains in the order shown. dAla(ψthiazole) = C[C@@H](N[*:1])c1nc(C(=O)[*:2])cs1; Trp(4-OMe) = COc1cccc2[nH]cc(C[C@H](N)C(=O)O)c12; GlyΨ(Thz) = O=C(c1csc(CN[*:1])n1)[*:2]; dDab = NCC[C@@H](N)C(=O)O; Orn = NCCC[C@H](N)C(=O)O; dAbu = CC[C@@H](N)C(=O)O; Dab = NCC[C@H](N)C(=O)O; Dha = C=C(N)C(=O)O; Sar = CNCC(=O)O

What was measured:
Pseudomonas aeruginosa = experiment: Antimicrobial activity against Pseudomonas aeruginosa assessed as reduction in bacterial growth; type: functional, organism-based
[1] = target: T1, PA-I galactophilic lectin (Pseudomonas aeruginosa (strain ATCC 15692 / PAO1 / 1C / PRS 101 / LMG12228), UniProt Q05097); experiment: Binding affinity to Pseudomonas aeruginosa PAO1 LecA assessed as dissociation constant
T1 sequence (Q05097 whole entry): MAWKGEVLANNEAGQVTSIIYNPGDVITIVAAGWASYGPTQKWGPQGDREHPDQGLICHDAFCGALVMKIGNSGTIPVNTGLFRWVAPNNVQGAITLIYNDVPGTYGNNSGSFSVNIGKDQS

Elastase = Elastase (Pseudomonas aeruginosa (strain ATCC 15692 / PAO1 / 1C / PRS 101 / LMG12228), UniProt P14756); experiment: Inhibition of Pseudomonas aeruginosa LasB elastase using aminobenzoyl-Ala-Gly-Leu-Ala-p-nitro-benzyl-amide as substrate b microtiter-based fluorimetric assay
Sequence of Elastase (P14756 whole entry): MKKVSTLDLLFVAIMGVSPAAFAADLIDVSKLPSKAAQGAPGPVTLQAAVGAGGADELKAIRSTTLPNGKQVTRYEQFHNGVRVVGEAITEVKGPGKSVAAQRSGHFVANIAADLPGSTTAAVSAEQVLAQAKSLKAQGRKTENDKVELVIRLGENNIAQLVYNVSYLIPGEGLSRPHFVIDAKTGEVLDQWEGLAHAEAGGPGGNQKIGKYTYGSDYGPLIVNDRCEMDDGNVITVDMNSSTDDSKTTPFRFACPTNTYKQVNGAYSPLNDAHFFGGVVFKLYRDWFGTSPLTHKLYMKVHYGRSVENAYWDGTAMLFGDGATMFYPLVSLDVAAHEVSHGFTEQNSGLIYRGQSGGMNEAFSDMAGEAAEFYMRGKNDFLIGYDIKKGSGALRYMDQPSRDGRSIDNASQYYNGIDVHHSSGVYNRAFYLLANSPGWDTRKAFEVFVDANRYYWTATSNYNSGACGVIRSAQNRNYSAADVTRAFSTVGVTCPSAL

[2] = Antagonist activity at Pseudomonas aeruginosa MvfR
[3] = Half life in mouse; type: ADME, organism-based; conditions: in vivo

SMILES: C=C1NC(=O)[C@@H](C)NC(=O)CNC(=O)[C@H](Cc2c[nH]c3ccccc23)NC(=O)[C@H](Cc2c[nH]c3ccccc23)NC(=O)c2csc(n2)[C@@H](C)NC(=O)CN(C)C1=O
- IC50 (Pseudomonas aeruginosa): 1.4 µg/mL (≈ 1.76 µM)

SMILES: CO[C@H]1O[C@H]([C@@H](O)CNS(=O)(=O)c2c(C)cc(C)cc2C)[C@@H](O)[C@H](O)[C@@H]1O
- Kd [1]: 100 nM

SMILES: CC(=O)SCC(=O)Nc1cc(C)c(Br)cc1Cl
- IC50 (Elastase): 6000 nM

SMILES: C[C@@H]1O[C@H](C)[C@@H](O)[C@H](O)[C@@H]1O
- Kd [1]: 17000 nM

SMILES: OC[C@H]1O[C@@H](Sc2ccc3ccccc3c2)[C@H](O)[C@@H](O)[C@H]1O
- Kd [1]: 6300 nM

- MIC (Pseudomonas aeruginosa): 1 µg/mL
SMILES: COc1c(NC(=O)c2ccc(NC(=O)c3ccc(NC(=O)[C@H](CC#N)NC(=O)c4ccc(NC(=O)/C(C)=C/c5ccc(O)cc5)cc4)cc3)c(OC)c2O)ccc(C(=O)O)c1O

- Kd [1]: 82 nM
SMILES: N=C(N)NCCC[C@H](NC(=O)COCCOCCNC(=O)[C@H](CCCCNC(=O)[C@@H]1C[C@H](NC(=O)[C@H](Cc2cn(CCNC(=O)c3ccc(S[C@@H]4O[C@H](CO)[C@H](O)[C@H](O)[C@H]4O)cc3)nn2)NC(=O)COc2ccccc2)CN1)NC(=O)[C@@H]1C[C@H](NC(=O)[C@H](Cc2cn(CCNC(=O)c3ccc(S[C@@H]4O[C@H](CO)[C@H](O)[C@H](O)[C@H]4O)cc3)nn2)NC(=O)COc2ccccc2)CN1)C(N)=O

SMILES: C=C1NC(=O)[C@@H](C)NC(=O)CNC(=O)[C@H](Cc2c[nH]c3cccc(OC)c23)NC(=O)[C@H](Cc2c[nH]c3ccccc23)NC(=O)c2csc(n2)CNC(=O)CN(C)C1=O (cyclo([Dha][Sar][GlyΨ(Thz)]W[Trp(4-OMe)]G[dA]))
- IC50 (Pseudomonas aeruginosa): 0.8 µg/mL (≈ 0.987 µM)

- MIC (Pseudomonas aeruginosa): 0.4 µM
SMILES: CC(C)C[C@H](NC(=O)[C@H](CCCCN)NC(=O)[C@H](CCCCNC(=O)[C@H](CC(C)C)NC(=O)[C@H](CCCCN)NC(=O)[C@H](CCCCNC(=O)[C@H](CC(C)C)NC(=O)[C@H](CCCCN)NC(=O)[C@H](CCCCNC(=O)[C@H](CC(C)C)NC(=O)[C@@H](N)CCCCN)NC(=O)[C@H](CC(C)C)NC(=O)[C@@H](N)CCCCN)NC(=O)[C@H](CC(C)C)NC(=O)[C@H](CCCCN)NC(=O)[C@H](CCCCNC(=O)[C@H](CC(C)C)NC(=O)[C@@H](N)CCCCN)NC(=O)[C@H](CC(C)C)NC(=O)[C@@H](N)CCCCN)NC(=O)[C@H](CC(C)C)NC(=O)[C@H](CCCCN)NC(=O)[C@H](CCCCNC(=O)[C@H](CC(C)C)NC(=O)[C@H](CCCCN)NC(=O)[C@H](CCCCNC(=O)[C@H](CC(C)C)NC(=O)[C@@H](N)CCCCN)NC(=O)[C@H](CC(C)C)NC(=O)[C@@H](N)CCCCN)NC(=O)[C@H](CC(C)C)NC(=O)[C@H](CCCCN)NC(=O)[C@H](CCCCNC(=O)[C@H](CC(C)C)NC(=O)[C@@H](N)CCCCN)NC(=O)[C@H](CC(C)C)NC(=O)[C@@H](N)CCCCN)C(N)=O (I: H-KLK([Leu-Lys])KLKKLKKL-NH2 / II: H-KLK([Leu-Lys])KLKKL / III: H-KLK([Leu-Lys])KL / IV: H-KLK([Leu-Lys])KL; amide I:6-IV:C, I:9-II:C, II:6-III:C)

SMILES: CC(C)C[C@H](NP(=O)(O)O[C@@H]1O[C@@H](C)[C@H](O)[C@@H](O)[C@H]1O)C(=O)N[C@@H](Cc1c[nH]c2ccccc12)C(=O)O [PHOSPHORAMIDON]
- Ki (Elastase): 57 nM

SMILES: C=C1NC(=O)[C@@H](CC)NC(=O)CNC(=O)[C@H](Cc2c[nH]c3cccc(OC)c23)NC(=O)[C@H](Cc2c[nH]c3ccccc23)NC(=O)c2csc(n2)[C@@H](C)NC(=O)CN(C)C1=O (cyclo([Dha][Sar][dAla(ψthiazole)]W[Trp(4-OMe)]G[dAbu]))
- IC50 (Pseudomonas aeruginosa): 0.08 µg/mL (≈ 0.0954 µM)

- IC50 [2]: 50 nM
SMILES: CCCCCCCCCc1nc2cc(Cl)ccc2c(=O)n1N

- MIC50 (Pseudomonas aeruginosa): 10 µg/mL (≈ 6.44 µM)
SMILES: CC[C@H](C)[C@@H]1NC(=O)[C@H](Cc2c[nH]c3ccccc23)NC(=O)[C@H]([C@@H](C)O)NC(=O)[C@@H]2CCCN2C(=O)[C@H]2CCCN2C(=O)[C@H](CO)NC(=O)[C@H](C)NC(=O)[C@H](CCN)NC(=O)[C@H](CCN)NC(=O)[C@H](Cc2c[nH]c3ccccc23)NC(=O)[C@H](CCN)NC(=O)[C@@H](CCN)NC(=O)[C@H](CCCN)NC(=O)[C@H](CCN)NC1=O [MUREPAVADIN] (cyclo(TWI[Dab][Orn][dDab][Dab]W[Dab][Dab]AS[dP]P))

SMILES: CO[C@H]1O[C@H](CO)[C@@H](O)[C@H](O)[C@@H]1O
- half-life [3]: 0.75 min

- MIC90 (Pseudomonas aeruginosa): 16 µg/mL (≈ 27.3 µM)
SMILES: CN(C)c1cc(NC(=O)CNC(C)(C)C)c(O)c2c1C[C@H]1C[C@H]3[C@H](N(C)C)C(O)=C(C(N)=O)C(=O)[C@@]3(O)C(O)=C1C2=O [TIGECYCLINE]

SMILES: O=C(Nc1ccc(O)c(=O)cc1)Nc1cccc2ccccc12
- IC50 (Elastase): 1000 nM

SMILES: CO[C@H]1O[C@H](CNC(=O)/C=C/c2ccccc2)[C@@H](O)[C@H](O)[C@@H]1O
- half-life [3]: 5 min
